In the supplement of paper PMC10307832:

What was measured:
Assay in all cases: relative viability (nuclei count vs DMSO), 5 days (fraction); higher = more cells survive
[1] = compound: CN(c1ncccc1CNc1nc(Nc2ccc3c(c2)CC(=O)N3)ncc1C(F)(F)F)S(C)(=O)=O
How it was run: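 Viability was read as treated-well nuclei divided by vehicle-well nuclei, using the median across plates. Lung cancer cell lines in 1536-well plates were kept overnight at 37 °C, pinned with five √10-spaced library-drug doses, and after 5 days were Hoechst-stained, imaged at 4× and counted in MetaXpress. Plates passed only with control CV below 25% and at least one doubling.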

[2] = compound: CN(c1ncccc1CNc1nc(Nc2ccc3c(c2)CC(=O)N3)ncc1C(F)(F)F)S(C)(=O)=O + CC1(C)CCC(c2ccc(Cl)cc2)=C(CN2CCN(c3ccc(C(=O)NS(=O)(=O)c4ccc(N[C@H](CCN5CCOCC5)CSc5ccccc5)c(S(=O)(=O)C(F)(F)F)c4)cc3)CC2)C1 [Navitoclax] (partner 0.5 µM)
How it was run: (§1)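 One day after seeding in 1536-well plates, lung cancer cell lines were dosed by pin tool. Dosing was either single-drug or a fixed anchor-drug dose plus five library-drug doses (not always all listed) in √10 steps. After 5 days, nuclei were stained in one fix-and-stain step and counted on 4× images, and relative viability is the nuclei count of treated wells over that of vehicle wells, given as the median of duplicate plates.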

[3] = compound: CN(c1ncccc1CNc1nc(Nc2ccc3c(c2)CC(=O)N3)ncc1C(F)(F)F)S(C)(=O)=O + Cc1cc(Nc2cc(N3CCN(C)CC3)nc(Sc3ccc(NC(=O)C4CC4)cc3)n2)n[nH]1 [Tozasertib] (partner 0.1 µM)
How it was run: as §1

[4] = compound: CN(c1ncccc1CNc1nc(Nc2ccc3c(c2)CC(=O)N3)ncc1C(F)(F)F)S(C)(=O)=O + N=C(N)NC(=N)NCCc1ccccc1 [Phenformin] (partner 250 µM)
How it was run: as §1

Cell Line | relative viability ([1]; 0.01 µM) | relative viability ([1]; 0.03162 µM) | relative viability ([1]; 0.1 µM) | relative viability ([1]; 0.3162 µM) | relative viability ([1]; 1 µM) | relative viability ([2]; first compound 0.01 µM) | relative viability ([2]; first compound 0.03162 µM) | relative viability ([2]; first compound 0.1 µM) | relative viability ([2]; first compound 1 µM) | relative viability ([3]; first compound 0.01 µM) | relative viability ([3]; first compound 0.03162 µM) | relative viability ([3]; first compound 0.1 µM) | relative viability ([3]; first compound 0.3162 µM) | relative viability ([3]; first compound 1 µM) | relative viability ([4]; first compound 0.01 µM) | relative viability ([4]; first compound 0.03162 µM) | relative viability ([4]; first compound 0.1 µM) | relative viability ([4]; first compound 0.3162 µM) | relative viability ([4]; first compound 1 µM) | relative viability ([2]; first compound 0.3162 µM)
NCI-H1650 | 0.924 | 0.961 | 0.947 | 0.904 | 0.886 | 1.26 | 1.39 | 1.39 | 0.76 | 0.497 | 0.359 | 0.429 | 0.323 | 0.269 | 0.481 | 0.53 | 0.519 | 0.436 | 0.409 | 
NCI-H1651 | 1.02 | 1.04 | 1 | 0.982 | 0.963 | 1.07 | 1 | 1.21 | 0.976 | 0.67 | 0.719 | 0.671 | 0.681 | 0.515 | 0.348 | 0.365 | 0.359 | 0.365 | 0.358 | 0.867
NCI-H1666 | 1.01 | 0.953 | 0.965 | 0.818 | 0.719 | 1.1 | 0.986 | 0.906 | 0.57 | 0.606 | 0.615 | 0.514 | 0.725 | 0.362 | 0.524 | 0.621 | 0.514 | 0.508 | 0.384 | 0.795
NCI-H1734 | 0.985 | 1.04 | 0.947 | 1.02 | 0.953 | 0.894 | 0.937 | 0.824 | 0.707 | 0.239 | 0.273 | 0.27 | 0.269 | 0.258 | 0.395 | 0.395 | 0.375 | 0.4 | 0.415 | 0.866
NCI-H1755 | 1.05 | 1.05 | 0.956 | 0.922 | 0.938 | 1.01 | 1.03 | 0.972 | 0.875 | 0.519 | 0.533 | 0.593 | 0.472 | 0.61 | 0.666 | 0.615 | 0.589 | 0.585 | 0.574 | 0.94
NCI-H1793 | 0.877 | 1.07 | 0.928 | 0.857 | 0.786 | 0.407 | 0.562 | 0.498 | 0.303 | 0.32 | 0.379 | 0.332 | 0.222 | 0.23 | 0.398 | 0.384 | 0.403 | 0.247 | 0.197 | 0.377
NCI-H1915 | 0.992 | 1 | 0.965 | 0.995 | 0.991 | 0.803 | 0.849 | 0.786 | 0.728 | 0.488 | 0.488 | 0.462 | 0.424 | 0.373 | 0.386 | 0.379 | 0.365 | 0.368 | 0.36 | 0.765
NCI-H1944 | 0.993 | 0.983 | 1 | 1.02 | 1.06 | 0.984 | 1.06 | 1.11 | 1.11 | 0.238 | 0.279 | 0.247 | 0.261 | 0.243 | 0.22 | 0.201 | 0.193 | 0.19 | 0.216 | 1
NCI-H1975 | 1.01 | 0.964 | 0.927 | 0.931 | 0.95 | 1.01 | 1.12 | 1.11 | 0.854 | 0.737 | 0.793 | 0.784 | 0.665 | 0.46 | 0.386 | 0.41 | 0.377 | 0.392 | 0.311 | 1.01
NCI-H1993 | 0.855 | 0.99 | 0.855 | 0.925 | 0.821 | 0.822 | 0.892 | 0.998 | 0.9 | 0.528 | 0.615 | 0.659 | 0.595 | 0.551 | 0.511 | 0.543 | 0.448 | 0.468 | 0.452 | 0.911
NCI-H2009 | 1.07 | 1.03 | 0.965 | 0.961 | 0.982 | 1.12 | 1.16 | 1.13 | 1.07 | 0.631 | 0.696 | 0.744 | 0.693 | 0.625 | 0.525 | 0.483 | 0.502 | 0.413 | 0.504 | 1.1
NCI-H2023 | 1.06 | 1.19 | 0.787 | 0.797 | 0.892 | 0.998 | 1.1 | 0.985 | 0.837 | 0.377 | 0.403 | 0.368 | 0.299 | 0.229 | 0.451 | 0.45 | 0.416 | 0.314 | 0.408 | 0.938
NCI-H2085 | 0.989 | 1.04 | 0.947 | 0.948 | 0.9 | 1.09 | 1.17 | 1.13 | 0.934 | 0.797 | 0.721 | 0.772 | 0.697 | 0.584 | 0.743 | 0.781 | 0.644 | 0.775 | 0.627 | 1.19
NCI-H2087 | 1.01 | 1.21 | 0.974 | 1.05 | 1.06 | 1.06 | 1.12 | 1.05 | 0.937 | 0.224 | 0.238 | 0.236 | 0.293 | 0.207 | 0.522 | 0.518 | 0.424 | 0.475 | 0.454 | 1.04
NCI-H2126 | 1 | 1 | 0.911 | 0.964 | 0.872 | 0.838 | 0.893 | 0.849 | 0.776 | 0.793 | 0.91 | 0.85 | 0.787 | 0.714 | 0.515 | 0.514 | 0.456 | 0.527 | 0.491 | 0.894
NCI-H2170 | 0.962 | 1.13 | 1 | 0.965 | 0.981 | 0.675 | 0.62 | 0.687 | 0.554 | 0.741 | 0.691 | 0.679 | 0.649 | 0.716 | 0.404 | 0.47 | 0.424 | 0.332 | 0.323 | 
